Laboratory results from US12077503B2, “Substituted cyclic amides and their use as herbicides” (FMC CORPORATION, priority 2015, dated 2024).

Key:
Assay in all cases: Test C preemergence
Type in all cases: in vivo
[1] = test system: Galium (catchweed bedstraw, Galium aparine); conditions: for Plant response rating, Galium: scale 0 to 100, 0 no effect, 100 complete control
How it was run: (§1)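 Herbicidal effect, applied preemergence to sown seeds or postemergence to 1- to 4-leaf plants, was scored visually 13 to 15 d after application, 0 to 100 versus controls.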

[2] = test system: barnyardgrass (Echinochloa crus-galli); conditions: for Plant response rating, Barnyardgrass: scale 0 to 100, 0 no effect, 100 complete control
How it was run: as §1

[3] = test system: blackgrass (Alopecurus myosuroides); conditions: for Plant response rating, Blackgrass: scale 0 to 100, 0 no effect, 100 complete control
How it was run: as §1

corn (Zea mays) = conditions: for Plant response rating, Corn: scale 0 to 100, 0 no effect, 100 complete control
How it was run: as §1

[4] = test system: crabgrass, large (large crabgrass, Digitaria sanguinalis); conditions: for Plant response rating, Crabgrass, Large: scale 0 to 100, 0 no effect, 100 complete control
How it was run: as §1

[5] = test system: foxtail, giant (giant foxtail, Setaria faberii); conditions: for Plant response rating, Foxtail, Giant: scale 0 to 100, 0 no effect, 100 complete control
How it was run: as §1

[6] = test system: johnsongrass (Sorghum halepense); conditions: for Plant response rating, Johnsongrass: scale 0 to 100, 0 no effect, 100 complete control
How it was run: as §1

[7] = test system: lambsquarters (Chenopodium album); conditions: for Plant response rating, Lambsquarters: scale 0 to 100, 0 no effect, 100 complete control
How it was run: as §1

[8] = test system: morningglory (Ipomoea coccinea); conditions: for Plant response rating, Morningglory: scale 0 to 100, 0 no effect, 100 complete control
How it was run: as §1

[9] = test system: nutsedge, yellow (yellow nutsedge, Cyperus esculentus); conditions: for Plant response rating, Nutsedge, Yellow: scale 0 to 100, 0 no effect, 100 complete control
How it was run: as §1

[10] = test system: oilseed rape (Brassica napus); conditions: for Plant response rating, Oilseed Rape: scale 0 to 100, 0 no effect, 100 complete control
How it was run: as §1

[11] = test system: pigweed (Amaranthus retroflexus); conditions: for Plant response rating, Pigweed: scale 0 to 100, 0 no effect, 100 complete control
How it was run: as §1

[12] = test system: ragweed (common ragweed, Ambrosia elatior); conditions: for Plant response rating, Ragweed: scale 0 to 100, 0 no effect, 100 complete control
How it was run: as §1

[13] = test system: ryegrass, Italian (Italian ryegrass, Lolium multiflorum); conditions: for Plant response rating, Ryegrass, Italian: scale 0 to 100, 0 no effect, 100 complete control
How it was run: as §1

soybean (Glycine max) = conditions: for Plant response rating, Soybean: scale 0 to 100, 0 no effect, 100 complete control
How it was run: as §1

[14] = test system: velvetleaf (Abutilon theophrasti); conditions: for Plant response rating, Velvetleaf: scale 0 to 100, 0 no effect, 100 complete control
How it was run: as §1

[15] = test system: waterhemp (common waterhemp, Amaranthus rudis); conditions: for Plant response rating, Waterhemp: scale 0 to 100, 0 no effect, 100 complete control
How it was run: as §1

[16] = test system: wheat (winter wheat, Triticum aestivum); conditions: for Plant response rating, Wheat: scale 0 to 100, 0 no effect, 100 complete control
How it was run: as §1

[17] = 31 g ai/ha, 0 is no effect, 100 is complete control

SMILES: CN1CC(c2cccc(OC(F)F)c2)C(C(=O)Nc2ccc(F)cc2F)C1=O (stereo not drawn) [Compound 617]
- Plant response rating (scale of 0 to 100), Galium [1, 17]: 0
- Plant response rating, Galium ([1]; 62 g ai/ha): 85
- Plant response rating, Galium ([1]; 125 g ai/ha): 85
- Plant response rating, Galium ([1]; 250 g ai/ha): 85
- Plant response rating (scale of 0 to 100), Barnyardgrass [2, 17]: 85
- Plant response rating, Barnyardgrass ([2]; 62 g ai/ha): 90
- Plant response rating, Barnyardgrass ([2]; 125 g ai/ha): 95
- Plant response rating, Barnyardgrass ([2]; 250 g ai/ha): 95
- Plant response rating (scale of 0 to 100), Blackgrass [3, 17]: 20
- Plant response rating, Blackgrass ([3]; 62 g ai/ha): 20
- Plant response rating, Blackgrass ([3]; 125 g ai/ha): 85
- Plant response rating, Blackgrass ([3]; 250 g ai/ha): 90
- Plant response rating (scale of 0 to 100), Corn (corn (Zea mays); [17]): 0
- Plant response rating, Corn (corn (Zea mays); 62 g ai/ha): 40
- Plant response rating, Corn (corn (Zea mays); 125 g ai/ha): 75
- Plant response rating, Corn (corn (Zea mays); 250 g ai/ha): 80
- Plant response rating (scale of 0 to 100), Crabgrass, Large [4, 17]: 95
- Plant response rating, Crabgrass, Large ([4]; 62 g ai/ha): 95
- Plant response rating, Crabgrass, Large ([4]; 125 g ai/ha): 100
- Plant response rating, Crabgrass, Large ([4]; 250 g ai/ha): 100
- Plant response rating (scale of 0 to 100), Foxtail, Giant [5, 17]: 90
- Plant response rating, Foxtail, Giant ([5]; 62 g ai/ha): 90
- Plant response rating, Foxtail, Giant ([5]; 125 g ai/ha): 95
- Plant response rating, Foxtail, Giant ([5]; 250 g ai/ha): 98
- Plant response rating (scale of 0 to 100), Johnsongrass [6, 17]: 25
- Plant response rating, Johnsongrass ([6]; 62 g ai/ha): 30
- Plant response rating, Johnsongrass ([6]; 125 g ai/ha): 65
- Plant response rating, Johnsongrass ([6]; 250 g ai/ha): 75
- Plant response rating (scale of 0 to 100), Lambsquarters [7, 17]: 30
- Plant response rating, Lambsquarters ([7]; 62 g ai/ha): 55
- Plant response rating, Lambsquarters ([7]; 125 g ai/ha): 70
- Plant response rating, Lambsquarters ([7]; 250 g ai/ha): 80
- Plant response rating (scale of 0 to 100), Morningglory [8, 17]: 0
- Plant response rating, Morningglory ([8]; 62 g ai/ha): 0
- Plant response rating, Morningglory ([8]; 125 g ai/ha): 25
- Plant response rating, Morningglory ([8]; 250 g ai/ha): 40
- Plant response rating (scale of 0 to 100), Nutsedge, Yellow [9, 17]: 0
- Plant response rating, Nutsedge, Yellow ([9]; 62 g ai/ha): 0
- Plant response rating, Nutsedge, Yellow ([9]; 125 g ai/ha): 20
- Plant response rating, Nutsedge, Yellow ([9]; 250 g ai/ha): 35
- Plant response rating (scale of 0 to 100), Oilseed Rape [10, 17]: 30
- Plant response rating, Oilseed Rape ([10]; 62 g ai/ha): 85
- Plant response rating, Oilseed Rape ([10]; 125 g ai/ha): 90
- Plant response rating, Oilseed Rape ([10]; 250 g ai/ha): 90
- Plant response rating (scale of 0 to 100), Pigweed [11, 17]: 10
- Plant response rating, Pigweed ([11]; 62 g ai/ha): 20
- Plant response rating, Pigweed ([11]; 125 g ai/ha): 45
- Plant response rating, Pigweed ([11]; 250 g ai/ha): 75
- Plant response rating (scale of 0 to 100), Ragweed [12, 17]: 10
- Plant response rating, Ragweed ([12]; 62 g ai/ha): 10
- Plant response rating, Ragweed ([12]; 125 g ai/ha): 40
- Plant response rating, Ragweed ([12]; 250 g ai/ha): 70
- Plant response rating (scale of 0 to 100), Ryegrass, Italian [13, 17]: 10
- Plant response rating, Ryegrass, Italian ([13]; 62 g ai/ha): 45
- Plant response rating, Ryegrass, Italian ([13]; 125 g ai/ha): 50
- Plant response rating, Ryegrass, Italian ([13]; 250 g ai/ha): 90
- Plant response rating (scale of 0 to 100), Soybean (soybean (Glycine max); [17]): 0
- Plant response rating, Soybean (soybean (Glycine max); 62 g ai/ha): 10
- Plant response rating, Soybean (soybean (Glycine max); 125 g ai/ha): 0
- Plant response rating, Soybean (soybean (Glycine max); 250 g ai/ha): 20
- Plant response rating (scale of 0 to 100), Velvetleaf [14, 17]: 10
- Plant response rating, Velvetleaf ([14]; 62 g ai/ha): 10
- Plant response rating, Velvetleaf ([14]; 125 g ai/ha): 20
- Plant response rating, Velvetleaf ([14]; 250 g ai/ha): 45
- Plant response rating (scale of 0 to 100), Waterhemp [15, 17]: 20
- Plant response rating, Waterhemp ([15]; 62 g ai/ha): 25
- Plant response rating, Waterhemp ([15]; 125 g ai/ha): 70
- Plant response rating, Waterhemp ([15]; 250 g ai/ha): 80
- Plant response rating (scale of 0 to 100), Wheat [16, 17]: 0
- Plant response rating, Wheat ([16]; 62 g ai/ha): 15
- Plant response rating, Wheat ([16]; 125 g ai/ha): 45
- Plant response rating, Wheat ([16]; 250 g ai/ha): 80
